Test results reported in patent US6773881B2, “Methods of modulating hair growth” (The General Hospital Corporation, priority 2000, dated 2004).
Entries after “also recorded” stand apart in the source; their conditions may differ.

Test system: mouse vibrissa follicles
Experiment: Mouse vibrissa organ culture system
Assay type: cell-based, mice
Conditions: 4 days
Procedure: Whisker pads were isolated from three 5 week old female C57/BL mice and were shortly immersed in 70% ethanol in phosphate-buffered saline (PBS), followed by a 10 minute incubation in William's E medium containing 400 U/ml penicillin, 400 μg/ml streptomycin, and 1.0 μg/ml fungizone (all from GibcoBRL). Vibrissa follicles in the anagen growth phase were isolated under a dissecting microscope, and the part of the vibrissa shaft that extend over the epidermal surface was cut off. Vibrissa follicles were then incubated on Millapore membranes in William's E medium alone (n-8), in medium containing 50 ng/ml recombinant murine VEGF (R&D Systems; n=6), or medium containing 5% fetal bovine serum (FBS; n=8). The media were replaced by fresh media after 2 days, and the follicles were incubated over a total period of 4 days. After 4 days, the length of the outgrowing hair shafts was measured by image analysis of digital pictures, taken under a Nikon E600 microscope.
In addition, whisker follicles were isolated and cultured as described above. Seven follicles were treated with 5 μg/ml of a goat anti-mouse VEGF neutralizing antibody (R&D Systems), and 8 follicles were treated with 5 μg/ml of normal goat IgG.

VEGF
average hair growth (length of outgrowing hair shafts) (50 ng/ml recombinant murine VEGF, control 1.963±0.101 mm): 1.959±0.086 mm | effect on in vitro hair growth compared with control (vibrissa organ culture, absence of a vascular system): no significant differences; also recorded: did not influence
